# Measurements as given in patent publication US20240335395A1, “COMPOSITIONS AND METHODS FOR PREVENTING AND/OR TREATING DISEASE ASSOCIATED WITH IL-23 EXPRESSION” (ALLSPIM, priority 2021, published 2024).
# How the values were obtained:
# [1] = tested on: IL-17/IL-23 and TNF signaling pathway-associated cytokine genes and chemokine genes; assay: Transcription of IL-17/IL-23 and TNF signature genes in LPS-stimulated THP-1 cells (qPCR); type: cell-based, human; conditions: 2 h; RPM 5-20 μM
# Description: (§1) Sample Collection and Preparation. THP-1 cells, a human leukemia monocyte-derived cell line, have been widely used as a model to study the modulation of the immune response and the function of monocytes and monocyte-derived macrophages. Here, lipopolysaccharide (LPS)-stimulated THP-1 cells were used as a model to study the cytokine storm in vitro (Chanput et al., 2014). THP-1 cells (purchased from American Type Culture Collection, Rockville, MD) were grown in RPMI 1640 culture medium (Gibco) supplemented with 10% fetal bovine serum (FBS) (Gibco, UK), 0.05 mM 2-mercaptoethanol, and 1% penicillin/streptomycin (Invitrogen) at 37° C. in 5% CO2 in a humidified incubator. Cultured cells were plated into culture plates in appropriate volumes with a cell density of 5×10^5 cells/ml. 2,4-D was purchased from Wuhan ChemFaces Biochemical Co., Ltd (Hubei, China) and tested for cytotoxicity in THP-1 cells overnight using a commercial MTT Cell Proliferation and Cytotoxicity Assay Kit (Beyotime, Shanghai, China). […]
# Real-Time Quantitative PCR. Real-time quantitative PCR was performed in triplicate using the TB Green qPCR master mix (Takara Biomedical Technology Co., Ltd, Dalian, China) on an ABI 7500 Real-Time PCR System (Thermo, USA). […] The ΔΔCT method was used to quantify relative mRNA levels as described above in Example 1 (Applied Biosystems). Data are expressed as mean±SD. […]
# [2] = tested on: IL-17/IL-23 and TNF signature cytokines and chemokines; assay: Release of IL-17/IL-23 and TNF signature cytokines and chemokines into supernatant of LPS-stimulated THP-1 cells (ELISA); type: cell-based, human; conditions: 24 h
# Description: as §1
# ELISA. […] Culture supernatants were measured according to the manufacturer's instructions. A Varioskan LUX microplate reader (Thermo Fisher, USA) was used for the assay and 4-parameter logistic regression was used for data analysis. […] Data are expressed as mean±SD. […]
# [3] = tested on: IL-10; assay: MSU-induced IL-10 in knee joint tissue (multiplex microassay); type: in vivo, mouse; conditions: 2,4-D 100 mg/kg, DEX 0.5 mg/kg
# Description: (§2) Mice (six per group) were treated with 2,4-D (100 mg/kg or 20 mg/kg, i.p.), CLC (1 mg/kg or 0.2 mg/kg, i.p.), DEX (0.5 mg/kg or 0.1 mg/kg, i.p.), or vehicle (20% polyoxyethylenesorbitan monooleate (Tween 80) plus PBS) 30 min before intra-articular stimulus with MSU (100 μg/10 μL, i.a.). Six mice with intra-articular injection with PBS alone served as a negative control.
# (§3) Induction of MSU-Induced Knee Joint Inflammation. Male ICR (CD-1) mice (35-45 g, 10-12 weeks) were purchased from VitalRiver Inc (Beijing, China) and were kept in an animal care facility under controlled temperature of 21±1° C., humidity, and on a light/dark cycle, with ad libitum access to water and standard laboratory chow diet. Animal care and handling procedures were approved by the Animal Ethics Committee of GZUCM (Guangzhou University of Chinese Medicine). All efforts were made to minimize animal suffering and to reduce the number of animals used. Joint inflammation was induced by the intra-articular (i.a.) administration of MSU (200 μg/20 μl) into the right and left knee joints of mice under inhaled 3% isoflurane anesthesia. Control animals received an injection (i.a.) of sterile PBS (20 μL).
# (§4) Cytokine Measurement. Mice were anesthetized and sacrificed. Knee joints were collected and frozen in liquid nitrogen. Samples were then homogenized in 500 μl of buffer containing protease inhibitors, centrifuged (3600 rpm, 4° C., 15 min) and supernatants were used to determine Th1/Th2/Th17 cytokine levels using a multiplex microassay (Qantibody® mouse TH17 Array 1 kit, Cat. No.: QAM-TH17-1; RayBiotech, Norcross, GA). Results were expressed as picograms (pg) of cytokine/mg of tissue.
# (§5) Statistical Analysis. […] For in vitro experiments, microassays were performed in quadruplicate. p<0.05 was considered significant (*p<0.05, **p<0.01, ***p<0.001).
# [4] = tested on: MSU-induced knee joint edema; assay: MSU-induced knee joint edema in mice; type: in vivo, mouse; conditions: 20 h
# Description: as §2, with “2,4-D, isolated and purified from Chloranthus spicatus (purity≥98%), was purchased from BOC Science (Shirley, NY). Colchicine (CLC) (purity≥96%) and dexamethasone (DEX) (purity≥98%) were purchased from Sigma. Mice” for “Mice”
# Preparation of monosodium urate crystal (MSU). MSU crystals were prepared as described previously (Ruiz-Miyazawa et al., 2017). Briefly, 800 mg of monosodium urate was dissolved in 155 ml of boiling milli-Q water containing 2N NaOH. After pH adjustment to 8.9, the solution was cooled gradually by stirring at room temperature and crystallized overnight at 4° C. Crystals were collected, and centrifuged at 3,000×g for 2 min at 4° C. The crystals were evaporated and sterilized by heating at 180° C. for 2 h and stored in a sterile environment until use. The load of endotoxin present in the MSU crystals was determined using a ToxinSensor^TM Single Test Kit (GenScript).
# as §3
# Evaluation of Knee Joint Edema. Knee joint edema was determined with a caliper (Mitutoyo) before (zero time), and after the intra-articular injection with MSU at the times indicated. Knee joint edema was determined for each mouse by the difference between the time points indicated on figures and the zero time (Ruiz-Miyazawa et al, 2017). The edema value is represented as Amm/joint.
# Statistical Analysis. Data were analyzed using GraphPad Prism statistical software (GraphPad Software, Inc., United States-500.288, version 5.0). Results are presented as means±SEM or SD of measurements made on 6 mice per group, with statistical significance determined by two-way ANOVA, comparing each group to the control (“Model”) group. For in vitro experiments, microassays were performed in quadruplicate. p<0.05 was considered significant (*p<0.05, **p<0.01, ***p<0.001).
# [5] = tested on: IL-1ß; assay: MSU-induced IL-1ß in knee joint tissue (multiplex microassay); type: in vivo, mouse; conditions: 2,4-D 100 mg/kg, CLC 1 mg/kg, DEX 0.5 mg/kg
# Description: as §2, §3, §4, §5
# [6] = tested on: TNF-alpha; assay: MSU-induced TNF-alpha in knee joint tissue (multiplex microassay); type: in vivo, mouse; conditions: 2,4-D 100 mg/kg, CLC 1 mg/kg, DEX 0.5 mg/kg
# Description: as §2, §3, §4, §5
# [7] = tested on: IL-6; assay: MSU-induced IL-6 in knee joint tissue (multiplex microassay); type: in vivo, mouse; conditions: 2,4-D 100 mg/kg, CLC 1 mg/kg, DEX 0.5 mg/kg
# Description: as §2, §3, §4, §5
# [8] = tested on: MSU-induced leukocyte recruitment; assay: MSU-induced leukocyte recruitment to the synovial cavity of knee joint; type: in vivo, mouse; conditions: 20 h; 2,4-D 100 mg/kg, CLC 1 mg/kg, DEX 0.5 mg/kg
# Description: as §2, with “2,4-D, isolated and purified from Chloranthus spicatus (purity≥98%), was purchased from BOC Science (Shirley, NY). Colchicine (CLC) (purity≥96%) and dexamethasone (DEX) (purity≥98%) were purchased from Sigma. Mice” for “Mice”
# as §3
# Histopathological Analysis. Knee joint was collected 20 h after MSU injection, fixed with 10% paraformaldehyde in PBS, and then decalcified for 10 days with EDTA and embedded in paraffin for histological analysis. […] Results are expressed as leukocytes infiltrate (cell/field) counted at the inflammatory foci within synovial cavity as indicative of synovitis. […]
# Statistical Analysis. Data were analyzed using GraphPad Prism statistical software (GraphPad Software, Inc., United States-500.288, version 5.0). Results are presented as means±SEM or SD of measurements made on 6 mice per group, with statistical significance determined by two-way ANOVA, comparing each group to the control (“Model”) group. […]
SMILES,"inhibition of transcription of Tnf, Il1ß, Ccl2 and Ccl3 [1]","inhibition at 20 µM ([2]; Homo sapiens, THP-1, 20 μM, read-out: inhibition of release of IL-1ß, IL-10, TNF-alpha, CCL2/MCP-1, CCL3/MIP-1alpha and CCL20)",decrease of IL-10 in knee joint tissue [3],"reduction of MSU-induced knee joint edema ([4]; high dose i.p.: 2,4-D 100 mg/kg, CLC 1 mg/kg, DEX 0.5 mg/kg)","reduction of MSU-induced knee joint edema ([4]; low dose i.p.: 2,4-D 20 mg/kg, DEX 0.1 mg/kg)",decrease of IL-1ß in knee joint tissue [5],decrease of TNF-alpha in knee joint tissue [6],decrease of IL-6 in knee joint tissue [7],reduction of MSU-induced leukocyte recruitment [8],"reduction of release of IL-10, CCL2/MCP-1, CCL3/MIP-1alpha and CCL20/MIP-3alpha ([2]; DEX)"
"CO[C@H]1C[C@@H]2CC[C@@H](C)[C@@](O)(O2)C(=O)C(=O)N2CCCC[C@H]2C(=O)O[C@H]([C@H](C)C[C@@H]2CC[C@@H](O)[C@H](OC)C2)CC(=O)[C@H](C)/C=C(\C)[C@@H](O)[C@@H](OC)C(=O)[C@H](C)C[C@H](C)/C=C/C=C/C=C/1C [Rapamycin, rapamycin, reference compound]",≤ 50 fold,< 50%,,,,,,,,
"C[C@@H]1C[C@H]2[C@@H]3CCC4=CC(=O)C=C[C@]4(C)[C@@]3(F)[C@@H](O)C[C@]2(C)[C@@]1(O)C(=O)CO [DEX, dexamethasone]",,,1.5 fold,38.9%,16.8%,1.9 fold,2.0 fold,no effect,2.2 fold,50-90%
